Experimental data: patent publication US10259792B2, “Crystal of uracil compound” (priority 2015, dated 2019)

How the values were obtained:
[1] = Blood concentration measurement test (oral administration to mice); assay type: in vivo; settings: 0.5% HPMC suspension, 50 mg/10 mL/kg, fed Balb/cA mice, compound (1) in plasma by LC-MS/MS
Procedure: A 0.5% HPMC dosing suspension (50 mg/10 mL/kg) of each of crystal I and crystal II was prepared. These suspensions were orally administered to mice (Balb/cA), which had been reared under feeding conditions, in a volume of 10 mL per kg body weight using an oral gavage tube. After administration, mice were returned to the mouse cage, and their conditions were checked. In the cage, water and feed were available ad libitum. At 0.5, 1, 2, 4, 6, and 8 hours after administration, mice were anesthetized with isoflurane, and 60 μL of blood was collected from the orbital venous plexus using a capillary blood collecting tube. The collected blood was ice-cooled, and centrifuged to separate plasma. The mice after blood collection were returned to the animal rearing cage, and their conditions after recovering from anesthesia were checked. After the final blood collection, the depth of isoflurane anesthesia was checked, and then the mice were euthanized by cervical dislocation.
From the concentrations of compound (1) in plasma measured by MRM method using LC-MS/MS, AUC0-24 hr was calculated by log-linear trapezoidal method using Phoenix WinNonlin (v6.3.0), software manufactured by Pharsight.

[2] = Solid stability test (under light exposure); assay type: physicochemical; settings: for Change of chemical purity / Change of crystal form by powder X-ray crystallography: 1 month under light exposure; for Chemical purity, Initial value / Chemical purity, One month later: HPLC; for Chemical purity, Initial value: before storage; for Chemical purity, One month later: stored 1 month under light exposure in clear glass bottle
Procedure: The solid stabilities of crystal I and crystal II obtained in the Examples, when stored for 1 month under light exposure, were measured under the following conditions.
Storage condition: Sample was placed in a transparent glass bottle, then the lid was placed, and the grove between the lid and the bottle was sealed by the grafting tape.
Measurement point: 1 Month
Stored amount: About 30 mg
Storage container: Clear glass bottle
Chemical purity of compound (1) in the sample solution was measured by HPLC analysis. The apparatuses, including the apparatus for data processing, were handled according to the processes and procedures instructed for the apparatuses. (Apparatus: Shimadzu Corporation LC-20AB)
Column: L-column 2 ODS manufactured by Chemicals Evaluation and Research Institute, 4.6×150 mm, 5 μm
Column temperature: 50° C.
Column flow rate: 1.0 mL/min
Mobile phase: A; Water, B; Acetonitrile
Sample concentration: 1.0 mg/mL

SMILES	AUC0-24 hr [1] [µM·h]	Change of chemical purity [2]	Change of crystal form by powder X-ray crystallography [2]	Chemical purity, Initial value [2] [%]	Chemical purity, One month later [2] [%]	AUC(0-t) ([1]; Balb/cA, mouse, plasma, po, 50 mg/kg, read-out: AUC0-24 hr) [µM·h]
C[C@@H](NS(=O)(=O)CCCOCn1ccc(=O)[nH]c1=O)c1cccc(OC2CCCC2)c1 [Crystal II, (R)—N-(1-(3-(cyclopentyloxy)phenyl)ethyl)-3-((2,4-dioxo-3,4-dihydropyrimidin-1(2H)-yl)methoxy)propane-1-sulfonamide]	144.51	did not change	no change of crystal form	99.0	99.1	–
C[C@@H](NS(=O)(=O)CCCOCn1ccc(=O)[nH]c1=O)c1cccc(OC2CCCC2)c1 [Crystal I, (R)—N-(1-(3-(cyclopentyloxy)phenyl)ethyl)-3-((2,4-dioxo-3,4-dihydropyrimidin-1(2H)-yl)methoxy)propane-1-sulfonamide]	–	did not change	no change of crystal form	97.8	97.4	122
